Consider two substances from patent US20100152114A1, “Antioxidant activity of GH-RH Antagonists” (priority 2008, published 2010).

Ends that are not written are not given here.

Assay type in all cases: cell-based
For experiment [1], the system named is Proliferating Cell Nuclear Antigen (PCNA). Briefly: Western Blot of PCNA expression in LNCaP cells. As to conditions: control R.I: 0.656. The procedure: (B) is a Western Blot analysis of expression of the Proliferating Cell Nuclear Antigen (PCNA) in LNCaP prostate cancer cell line after exposure to GHRH antagonist JMR-132, and GHRH(1-29)NH2 n=2.
(§1) Prostate cancer cells LNCaP and breast cancer cells MCF-7 were obtained from American Type Culture Collection (Manassas, Va.) and were cultured as described previously. The antibodies that detect P53, PCNA, GPX1, SOD1, NQ01, Thioredoxin 1, COX2 and COX IV were purchased from Cell Signalling (Danvers, Mass.). The antibodies that detect β actin, NFκB50, pNFκB50, caspase 3 and its cleaved form were purchased from Santa Cruz Biotechnology (Santa Cruz, Calif.). The antibodies against GHRH-R (batch number: SV95) and SV1 (batch number: JH 2317/5) were raised in our laboratory. The signals for the immunoreactive proteins were visualized in a Chemi Doc XRS system (Biorad, Hercules, Calif.). The western Blot assay as well the quantification analysis of the blots was performed as described previously.
LNCaP prostate cancer cells were exposed to two concentrations of GHRH(1-29)NH2 and JMR-132. […] However, GHRH (1-29)NH2 at 0.1 μM concentration stimulated the proliferation rate of LNCaP cells by 13%. GHRH antagonist JMR-132 at the doses of 0.1 μM and 1 μM decreased the proliferation of LNCaP prostate cancer cell line by 32% and 37% respectively. In addition, the expression levels of the PCNA (M.W: 36 KDa) were evaluated by Western Blot. The PCNA protein expression was increased in the cells exposed to 0.1 μM and 1 μM of GHRH (1-29)NH2 (R.I: 0.77 and 0.925 respectively) and decreased in the cells that incubated with 0.1 μM of GHRH antagonist JMR-132. (R.I: 0.495) as compared to control (R.I: 0.656).
For orientation: A western blot detects proteins with antibodies after separation by electrophoresis.

The test system of a further experiment is SOD1. Kind of experiment: Western Blot of SOD1 in LNCaP cells. As to conditions: 1 μM, 72 hour exposure, only detectable with GHRH (1-29)NH2. The procedure: (§2) FIG. 7: is a Western Blot analysis of expression of the antioxidant enzymes TRX1, NQ01, GPX1 and SOD1 in LNCaP prostate cancer cell line after 72 hour exposure to GHRH antagonist JMR-132 and GHRH(1-29)NH2 n=2.
as §1
(§3) LNCaP prostate cancer cell line cultured in vitro was exposed to 1 μM JMR-132 and GHRH(1-29)NH2. The expression levels of the detoxifying enzymes were measured by Western Blot. The GPX1 (M.W: 22 Kda) protein expression was higher in the cells exposed to GHRH (1-29)NH2 (R.I: 0.126) and lower in the cells incubated with GHRH antagonist JMR-132 (R.I: 0.035), as compared to control (R.I:0.107). […]

Another experiment relates to NQ01. Briefly: Western Blot of NQ01 in LNCaP cells. As to conditions: 1 μM, 72 hour exposure, control R.I: 0.175. The procedure:
as §2, §1, §3

With “GHRH(1-29)NH2 (YADAIFTNSYRKVLGQLSARKLLQDIMSR-NH2; UniProt P01286 32-60, looked up, fragment) [Growth Hormone-Releasing Hormone (1-29) amide, agonist peptide used for comparison with the antagonist]”, the “PCNA protein expression (R.I)” value was 0.77 in experiment [1] (0.1 μM) and 0.925 in experiment [1] (1 μM). For the same substance, in the experiment on SOD1, the “SOD1 protein expression (R.I)” value worked out at 0.111. In addition, the “NQ01 protein expression (R.I)” value in the experiment with NQ01 is given as 0.196.
“[PhAc^0-Tyr^1, D-Arg^2, Cpa^6, Ala^8, Har^9, Tyr(Me)^10, His^11, Abu^15, His^20, Nle^27, D-Arg^28, Har^29]hGH-RH(1-29)NH2 [JMR-132]”: the “PCNA protein expression (R.I)” value in experiment [1] (0.1 μM) came out at 0.495. In addition, the “NQ01 protein expression (R.I)” value in the experiment on NQ01 was 0.025.
